# Measured values reported in PMC11191602, “A novel and selective fluorescent ligand for the study of adenosine A2B receptors” (Pharmacology Research & Perspectives, 2024).
# Legend:
# [1] = target: T1, NLuc‐A2BR (Homo sapiens, UniProt P29275); assay: NanoBRET competition binding against 50 nM PSB603‐BY630 in HEK293G cells expressing NLuc‐A2BR; conditions: for Ki: read-out: Appararent Log K i (converted)
# T1 construct: expressed in transfected cells
# T1 sequence (P29275 1-332): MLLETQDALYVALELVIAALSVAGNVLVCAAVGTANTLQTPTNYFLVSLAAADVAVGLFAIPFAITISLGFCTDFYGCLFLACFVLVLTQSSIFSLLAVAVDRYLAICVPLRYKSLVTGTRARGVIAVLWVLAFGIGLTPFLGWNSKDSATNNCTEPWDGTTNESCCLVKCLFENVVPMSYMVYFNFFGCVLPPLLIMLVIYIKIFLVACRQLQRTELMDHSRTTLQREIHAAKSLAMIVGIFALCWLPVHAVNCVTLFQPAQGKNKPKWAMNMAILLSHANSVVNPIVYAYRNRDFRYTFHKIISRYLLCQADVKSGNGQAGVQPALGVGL
# Experimental: (§1) Saturation and competition binding assays were performed as previously described.[36] Briefly, cells were seeded in 96‐well white clear‐bottomed Greiner plates pre‐treated with 10 μg/mL poly‐D‐lysine (Sigma‐Aldrich, Missouri USA) at a density of 30 000–35 000 cells per well in DMEM supplemented with 10% FBS. […] The NanoLuc substrate, furimazine (Promega Corporation, Wisconsin, USA), was then added to each well (1:400 dilution) and the plate was incubated for 10 min in the dark at 37°C. The resulting bioluminescence resonance energy transfer (BRET) was measured using a PHERAstar FS plate reader (BMG Labtech) at 37°C. For each well, filtered light emissions at 460 nm (80 nm bandpass) and >610 nm (longpass) for the BODIPY630/650 ligand were simultaneously measured. BRET ratios were calculated by dividing the 610 nm emission by the 460 nm emission. All conditions were performed in 2–6 replicates within each plate. For kinetic experiments, cells were preincubated for 10 min with 1:400 dilution of furimazine prior to addition of 200 nM PSB603‐BY630 and BRET ratios determined every 0.5 min.
# The IC 50 values were then used to calculate the K i values using the Cheng‐Prussoff equation: Ki=IC50/1+L/KD where [L] is the concentration of PSB603‐BY630 in nM, and K D is the dissociation constant of that fluorescent ligand in nM.
# [2] = target: T2, endogenous A2BR (Homo sapiens, UniProt P29275); assay: cAMP GloSensor luminescence assay in HEK293G cells endogenously expressing A2BR; type: cell-based; conditions: agonist alone, n=5
# T2 construct: HEK293G cells that express the cAMP biosensor Glosensor also endogenously express both A2BR and A2AR; host or cells: HEK293G
# T2 sequence (P29275 1-332): T1 sequence (P29275 1-332)
# Experimental: (§2) The cAMP GloSensor™ luminescence assay was performed according to the manufacturer's instructions (Promega Corporation, Madison, WI, USA). Briefly, after 24 h incubation at 37°C and 5% CO2 after cell plating (40 000 cells/well in 100 μL), medium was aspirated from each well of the 96‐well plate. Cells were incubated in 50 μL HEPES buffered saline solution (HBSS; 2 mM sodium pyruvate, 145 mM NaCl, 10 mM D‐glucose, 5 mM KCl, 1 mM MgSO4.7H2O, 10 mM HEPES, 1.3 mM CaCl2, 1.5 mM NaHCO3 in double‐distilled water, pH 7.45) containing 3% GloSensor™ cAMP reagent at 37°C for 1.5 h. For agonist studies, an initial baseline luminescence read was made at time zero, the plate was then removed from the plate‐reader and a further 50 μL HBSS containing agonist (2× final concentration) or HBSS (vehicle control) added. Luminescence was measured on an open channel (gain of 3600) immediately after these additions, and then continuously over 60 min, reading each well once every minute, by a PHERAstar FSX microplate reader (BMG Labtech, Offenburg, Germany) at 37°C. Increases in luminescence are indicative of intracellular cAMP accumulation, thus the temporal changes in relative cytosolic cAMP concentration were measured upon agonist or vehicle addition. Antagonist action was determined following 30 min pre‐incubation of HBSS in the presence of 20 and 200 nM PSB603‐BY630 and read as above. All conditions were performed in triplicates within each plate.
# [3] = target: T1, NLuc‐A2BR; assay: cAMP GloSensor luminescence assay in HEK293G cells overexpressing NLuc‐A2BR; type: cell-based; conditions: agonist alone, n=5
# Experimental: as §2
# [4] = target: T1, NLuc‐A2BR; assay: NanoBRET imaging of PSB603‐BY630 binding to HEK293G cells expressing NLuc‐A2BR; conditions: 100 nM PSB603‐BY630, co‐incubation with 10 μM MRS‐1706, 30 min
# Experimental: Cells were seeded onto 35 mm Cellview 4‐quadrant culture dishes (Greiner Bio‐one), which have a 10 mm glass coverslip bottom, in DMEM supplemented with 10% FBS at a density of 100 000 cells per quadrant 2 days prior to experiment in total volume of 500 μL. On the day of the experiment medium was replaced with HBSS in the presence or absence of PSB603‐BY630 (100 nM) and/or MRS1706 (10 μM) and incubated for 30 min at 37°C before imaging. Bioluminescence and NanoBRET imaging were performed on an Olympus LuminoView 200 microscope with a 60× NA1.42 oil immersion objective with a 0.5× tube lens, following addition of furimazine (1:800 dilution) (Promega). Images were captured by a C9100‐23B IMAGE EMX2 camera (Hamamatsu, Japan) with gain set at 200 for all channels. Filtered bioluminescence was captured using a 438/24 bandpass filter, BRET in the presence of PSB603‐BY630 was captured using a 650/50 nm bandpass filter. For the NLuc‐A2BR stable cell line exposure times were set at 10 s for filtered bioluminescence and 75 sec for BRET. Raw intensity values were determined for three regions of interest per experiment per condition and the BRET ratio calculated by dividing the raw intensity recorded from the BRET capture by the filtered bioluminescence capture. Corrected BRET ratios were determined by subtracting the BRET ratio determined from a control quadrant (HBSS alone). […]
# [5] = target: human A2BR; set-up: method as in PMID 23286920; conditions: membranes from CHO cells expressing the human A2BR ref 13; cited from earlier work
# [6] = target: T3, human NLuc‐A3R (Homo sapiens, UniProt P0DMS8); assay: NanoBRET saturation binding in stable HEK293G cell line expressing NLuc‐A3R; conditions: non‐specific defined with 1 μM MRS‐1220; PSB603‐BY630 at concentrations up to 500 nM
# T3 construct: expressed in transfected cells
# T3 sequence (P0DMS8 1-318): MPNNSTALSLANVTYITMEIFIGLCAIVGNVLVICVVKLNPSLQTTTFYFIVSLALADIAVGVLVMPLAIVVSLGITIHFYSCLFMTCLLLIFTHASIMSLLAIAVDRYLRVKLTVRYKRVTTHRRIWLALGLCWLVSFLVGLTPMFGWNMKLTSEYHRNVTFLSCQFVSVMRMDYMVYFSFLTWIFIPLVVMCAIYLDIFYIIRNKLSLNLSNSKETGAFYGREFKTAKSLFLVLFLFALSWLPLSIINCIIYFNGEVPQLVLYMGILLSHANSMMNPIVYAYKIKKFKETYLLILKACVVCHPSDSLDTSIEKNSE
# Experimental: as §1, with “min. At 60 min, 10 μM MRS‐1706 was added and the ligand‐binding kinetics followed for a further 60 min.” for “min.”
smiles,measurement,setting,value
"COc1ccc(CCCn2ncc3c2nc(N)n2nc(-c4ccco4)nc32)cc1 [SCH442416, 2‐(2‐Furanyl)‐7‐[3‐(4‐methoxyphenyl)propyl]‐7H‐pyrazolo[4,3‐e][1,2,4]triazolo[1,5‐c]pyrimidin‐5‐amine]",IC50,[1],9550 nM
same,Ki,[1],2570 nM
"N#Cc1c(N)nc(SCC(N)=O)c(C#N)c1-c1ccc(OCC2CC2)cc1 [BY 60–6583, 2‐[[6‐Amino‐3,5‐dicyano‐4‐[4‐(cyclopropylmethoxy)phenyl]‐2‐pyridinyl]thio]‐acetamide]",Emax,"[2]; HEK293G, read-out: Endogenous HEK293G EMAX (% of response to 3 μM BAY‐60‐6583)",104 ± 3.09%
same,EC50,[2]; read-out: Endogenous HEK293G Log EC50 (converted),129 nM
same,Emax,"[3]; HEK293G, read-out: HEK293G A2BAR EMAX (% of response to 0.3 μM BAY‐60‐6583)",100 ± 1.29%
same,EC50,[3]; read-out: HEK293G A2BAR Log EC50 (converted),18.6 nM
"CCCn1c(=O)c2[nH]c(-c3ccc(OCC(=O)Nc4ccc(C(C)=O)cc4)cc3)nc2n(CCC)c1=O [MRS1706, N‐(4‐Acetylphenyl)‐2‐[4‐(2,3,6,7‐tetrahydro‐2,6‐dioxo‐1,3‐dipropyl‐1H‐purin‐8‐yl)phenoxy]acetamide]",IC50,[1],36.3 nM
same,Ki,[1],9.77 nM
same,effect on PSB603‐BY630 binding to cell surface receptors (BRET imaging),[4],completely prevented
"O=C(Cc1ccccc1)Nc1nc2ccc(Cl)cc2c2nc(-c3ccco3)nn12 [MRS1220, N‐[9‐Chloro‐2‐(2‐furanyl)[1,2,4]‐triazolo[1,5‐c]quinazolin‐5‐yl]benzene acetamide]",Appararent Log K i,"[1]; calculated from IC50 (Cheng‐Prussoff) assuming competition with 50 nM PSB603‐BY630 for the same site, mean ± S.E.M., n=5",−6.40 ± 0.19
same,Log IC50,"[1]; inhibition of the binding of 50 nM PSB603‐BY630, mean ± S.E.M., n=5",−5.82 ± 0.19
CCCn1c(=O)[nH]c2nc(-c3ccc(S(=O)(=O)N4CCN(c5ccc(Cl)cc5)CC4)cc3)[nH]c2c1=O [[^3H]‐PSB603],Kd,[5],3.6 nM
COc1ccc(-n2nc3c(NC(=O)CCC(=O)NCCOCCOCCNC(=O)CCCCCNC(=O)COc4ccc(/C=C/C5=[N+]6C(=Cc7ccc(-c8cccs8)n7[B-]6(F)F)C=C5)cc4)nc4ccccc4n3c2=O)cc1 [AV039],specific binding to NLuc‐A3R,[6],high affinity specific binding
"O[C@H]1CC[C@H](Nc2nc(-c3ccccc3)nc3[nH]ccc23)CC1 [SLV320, trans‐4‐[(2‐Phenyl‐7H‐pyrrolo[2,3‐d]pyrimidin‐4‐yl)amino]cyclohexanol]",IC50,[1],6460 nM
same,Ki,[1],1740 nM
